Results as given in US20230392179A1 (SOOCHOW UNIVERSITY, priority 2021, published 2023).

System: Mycobacterium smegmatis containing plasmid PMV261-Kana^R-65S-RecA intein
Test: Intein splicing inhibitor screening system: growth (OD600) of Mycobacterium smegmatis carrying Kana^R-65S-RecA intein in kanamycin medium
Details: 20 μM cisplatin, kanamycin 50 μg/mL plus hygromycin, 37° C., 100 h

In the case of `N.N.[Cl][Pt][Cl]` [cisplatin], the “inhibition rate of growth of Mycobacterium smegmatis containing plasmid PMV261-Kana^R-65S-RecA intein” value is reported as 62%.
